Measured values published in patent publication US20240245682A1, “ALPHA-V-BETA-8 INTEGRIN INHIBITORS AND USES THEREOF” (Pliant Therapeutics, Inc., priority 2022, published 2024).

Experiments:
Assay in all cases: AlphaScreen proximity-based integrin binding assay with TGF-b1 LAP
Conditions in all cases: values given as ranges
[1] = target: human integrin αVβ6 (Homo sapiens, UniProt P06756+P18564)
Procedure: (§1) The biochemical potency of the disclosed compounds was determined using the AlphaScreen® (Perkin Elmer, Waltham, MA) proximity-based assay as described previously (Ullman E F et al., Luminescent oxygen channeling immunoassay: Measurement of particle binding kinetics by chemiluminescence. Proc. Natl. Acad. Sci. USA, Vol. 91, pp. 5426-5430, June 1994, herein incorporated by reference in its entirety). To gauge the potency of inhibitors of binding to each of human integrins αVβ1, αVβ6, and αVβ8, inhibitor compounds were independently incubated with one of αVβ1, αVβ6, or αVβ8, together with TGF-b1 LAP and biotinylated anti-LAP antibody plus acceptor and donor beads, following the manufacture's recommendations. The donor beads were coated with streptavidin. […] All incubations occurred at room temperatures in 50 mM Tris-HCl, pH 7.5, 0.1% BSA supplemented with 1 mM each CaCl2 and MgCl2.
(§2) The order of reagent addition was as follows:
(§3) 1. αVβ1, αVβ6, or αVβ8 integrin, test inhibitor compound, LAP, biotinylated anti-LAP antibody and acceptor beads were all added together.
(§4) 2. After 2 hours, donor beads were added. After another 30 minute incubation, samples were then read.
(§5) Integrin binding was evaluated by exciting donor beads at 680 nm, and measuring the fluorescent signal produced, between 520-620 nm, using a Biotek Instruments (Winooski, VT, USA) SynergyNeo2 multimode plate reader. Compound potency was assessed by determining inhibitor concentrations required to reduce fluorescent light output by 50%. Data analysis for IC50 determinations was carried out by nonlinear four parameter logistic regression analysis using Dotmatics ELN Software (Core Informatics Inc., Branford, Ct). […] Comp #in the Table and Examples below refers to the compound of the corresponding Example number as described in the Synthetic Examples.

[2] = target: human integrin αVβ8 (Homo sapiens, UniProt P06756+P26012)
Sequence of human integrin αVβ8 (P06756 31-992 limits assumed): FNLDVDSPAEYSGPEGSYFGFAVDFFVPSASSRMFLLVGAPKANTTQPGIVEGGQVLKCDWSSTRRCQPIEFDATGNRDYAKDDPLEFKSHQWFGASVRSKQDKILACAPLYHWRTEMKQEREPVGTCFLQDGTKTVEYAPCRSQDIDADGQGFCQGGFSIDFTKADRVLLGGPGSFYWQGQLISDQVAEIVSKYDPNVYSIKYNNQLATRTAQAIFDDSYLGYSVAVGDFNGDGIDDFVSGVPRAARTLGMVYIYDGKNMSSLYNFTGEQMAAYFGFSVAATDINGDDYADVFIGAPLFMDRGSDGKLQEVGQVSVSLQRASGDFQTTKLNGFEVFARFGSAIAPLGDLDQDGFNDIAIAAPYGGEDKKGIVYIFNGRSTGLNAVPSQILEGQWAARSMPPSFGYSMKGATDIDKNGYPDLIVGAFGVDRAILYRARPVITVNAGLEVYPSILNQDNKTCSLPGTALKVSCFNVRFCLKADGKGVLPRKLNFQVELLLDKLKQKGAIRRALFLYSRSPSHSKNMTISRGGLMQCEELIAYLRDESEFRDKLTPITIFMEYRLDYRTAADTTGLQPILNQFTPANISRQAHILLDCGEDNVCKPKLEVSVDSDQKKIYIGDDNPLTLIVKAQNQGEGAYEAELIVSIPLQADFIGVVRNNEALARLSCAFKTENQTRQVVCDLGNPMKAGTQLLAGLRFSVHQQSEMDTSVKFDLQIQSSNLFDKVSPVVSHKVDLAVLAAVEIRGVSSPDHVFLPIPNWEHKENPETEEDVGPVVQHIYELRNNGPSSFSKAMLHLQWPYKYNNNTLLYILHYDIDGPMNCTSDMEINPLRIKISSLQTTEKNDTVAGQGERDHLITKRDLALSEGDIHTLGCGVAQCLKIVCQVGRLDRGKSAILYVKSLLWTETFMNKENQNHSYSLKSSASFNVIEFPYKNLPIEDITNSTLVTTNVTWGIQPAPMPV
Sequence of human integrin αVβ8 (P26012 43-684 limits assumed): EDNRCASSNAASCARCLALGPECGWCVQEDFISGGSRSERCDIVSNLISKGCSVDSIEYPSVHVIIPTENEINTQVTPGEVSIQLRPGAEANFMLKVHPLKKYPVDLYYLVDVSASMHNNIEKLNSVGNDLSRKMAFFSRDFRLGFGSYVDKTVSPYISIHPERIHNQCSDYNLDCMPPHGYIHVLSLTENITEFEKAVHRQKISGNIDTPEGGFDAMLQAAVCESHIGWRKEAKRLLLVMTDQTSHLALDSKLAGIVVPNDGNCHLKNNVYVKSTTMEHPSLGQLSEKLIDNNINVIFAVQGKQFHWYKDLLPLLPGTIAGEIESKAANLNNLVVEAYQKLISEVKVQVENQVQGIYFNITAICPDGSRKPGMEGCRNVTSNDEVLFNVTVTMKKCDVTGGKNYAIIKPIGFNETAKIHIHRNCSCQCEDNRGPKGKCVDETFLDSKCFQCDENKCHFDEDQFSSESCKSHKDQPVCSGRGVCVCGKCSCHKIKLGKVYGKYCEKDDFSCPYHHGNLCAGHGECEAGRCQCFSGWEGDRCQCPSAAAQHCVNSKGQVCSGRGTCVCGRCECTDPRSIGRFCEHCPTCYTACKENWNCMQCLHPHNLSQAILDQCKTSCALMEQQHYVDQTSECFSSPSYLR
Procedure: as §1, §2, §3, §4, §5

[3] = target: human integrin αVβ1 (Homo sapiens, UniProt P05556+P06756)
Sequence of human integrin αVβ1 (P06756 31-992 limits assumed): as the sequence (P06756 31-992 limits assumed) above
Sequence of human integrin αVβ1 (P05556 21-728 limits assumed): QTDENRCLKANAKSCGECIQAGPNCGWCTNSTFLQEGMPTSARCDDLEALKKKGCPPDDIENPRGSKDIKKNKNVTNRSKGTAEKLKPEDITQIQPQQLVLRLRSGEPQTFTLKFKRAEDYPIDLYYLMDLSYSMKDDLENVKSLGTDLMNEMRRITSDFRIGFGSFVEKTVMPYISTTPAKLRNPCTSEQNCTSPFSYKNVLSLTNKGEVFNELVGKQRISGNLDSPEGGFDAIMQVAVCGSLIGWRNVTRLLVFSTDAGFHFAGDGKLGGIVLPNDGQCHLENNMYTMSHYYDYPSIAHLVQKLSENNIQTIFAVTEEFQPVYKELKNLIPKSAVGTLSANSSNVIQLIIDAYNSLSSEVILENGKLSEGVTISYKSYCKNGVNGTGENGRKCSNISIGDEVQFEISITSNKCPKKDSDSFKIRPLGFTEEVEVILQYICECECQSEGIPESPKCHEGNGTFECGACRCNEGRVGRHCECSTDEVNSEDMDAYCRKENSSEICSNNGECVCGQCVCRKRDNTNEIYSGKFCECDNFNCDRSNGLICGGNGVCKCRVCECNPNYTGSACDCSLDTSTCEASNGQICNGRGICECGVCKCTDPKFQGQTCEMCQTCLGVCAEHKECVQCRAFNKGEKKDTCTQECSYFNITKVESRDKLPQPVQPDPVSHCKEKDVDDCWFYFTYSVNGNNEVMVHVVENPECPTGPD
Procedure: as §1, §2, §3, §4, §5

Sequence of human integrin αVβ6 (P06756 31-992 limits assumed): as the sequence (P06756 31-992 limits assumed) above
Sequence of human integrin αVβ6 (P18564 22-707 limits assumed): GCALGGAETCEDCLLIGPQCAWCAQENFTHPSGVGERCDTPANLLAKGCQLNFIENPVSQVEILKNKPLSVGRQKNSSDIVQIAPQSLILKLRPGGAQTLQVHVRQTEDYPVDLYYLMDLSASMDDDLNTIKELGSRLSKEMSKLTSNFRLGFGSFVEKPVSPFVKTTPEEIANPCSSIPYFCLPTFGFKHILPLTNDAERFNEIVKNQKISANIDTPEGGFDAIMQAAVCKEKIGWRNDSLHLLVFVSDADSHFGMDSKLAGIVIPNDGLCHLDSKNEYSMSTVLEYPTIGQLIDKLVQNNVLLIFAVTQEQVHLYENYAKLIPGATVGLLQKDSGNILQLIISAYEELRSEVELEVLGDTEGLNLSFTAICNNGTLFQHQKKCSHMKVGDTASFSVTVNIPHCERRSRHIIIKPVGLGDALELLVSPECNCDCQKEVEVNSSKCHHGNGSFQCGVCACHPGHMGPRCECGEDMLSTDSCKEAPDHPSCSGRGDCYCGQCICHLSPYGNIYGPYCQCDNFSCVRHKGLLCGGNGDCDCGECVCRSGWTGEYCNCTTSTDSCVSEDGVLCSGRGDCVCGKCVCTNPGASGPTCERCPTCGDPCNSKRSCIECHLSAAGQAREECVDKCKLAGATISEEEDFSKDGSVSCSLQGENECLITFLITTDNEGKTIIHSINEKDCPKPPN

| SMILES | IC50 [1] [nM] | IC50 [2] [nM] | IC50 [3] [nM] |
| --- | --- | --- | --- |
| O=C(O)[C@H](CCOCCCCc1ccc2c(n1)NCCC2)NC(=O)C1(c2cnccn2)CC1 [Compound 11, N-(1-(pyrazin-2-yl)cyclopropane-1-carbonyl)-O-(4-(5,6,7,8-tetrahydro-1,8-naphthyridin-2-yl)butyl)-L-homoserine] | ≥ 500 | 50 to 150 | < 50 |
| CS(=O)(=O)c1ccccc1C1(C(=O)N[C@@H](CCOCCCCc2ccc3c(n2)NCCC3)C(=O)O)CC1 [Compound 46, N-(1-(2-(methylsulfonyl)phenyl)cyclopropane-1-carbonyl)-O-(4-(5,6,7,8-tetrahydro-1,8-naphthyridin-2-yl)butyl)-L-homoserine] | ≥ 500 | 250 to 500 | 50 to 150 |
| Cc1ncncc1C1(C(=O)N[C@@H](CCOCCCCc2ccc3c(n2)NCCC3)C(=O)O)CC1 [Compound 19, N-(1-(4-methylpyrimidin-5-yl)cyclopropane-1-carbonyl)-O-(4-(5,6,7,8-tetrahydro-1,8-naphthyridin-2-yl)butyl)-L-homoserine] | ≥ 500 | < 50 | < 50 |
| O=C(Cc1ccccc1)N[C@@H](CCOCCCCc1ccc2c(n1)NCCC2)C(=O)O [Compound 81, N-(2-phenylacetyl)-O-(4-(5,6,7,8-tetrahydro-1,8-naphthyridin-2-yl)butyl)-L-homoserine] | ≥ 500 | 50 to 150 | < 50 |
| O=C(O)[C@H](CCOCCCCc1ccc2c(n1)NCCC2)NC(=O)C1(n2c(F)cccc2=O)CC1 [Compound 93, N-(1-(6-fluoro-2-oxopyridin-1(2H)-yl)cyclopropane-1-carbonyl)-O-(4-(5,6,7,8-tetrahydro-1,8-naphthyridin-2-yl)butyl)-L-homoserine] | > 500 | < 50 | < 50 |
| Cc1cc(Cl)n(C2(C(=O)N[C@@H](CCOCCCCc3ccc4c(n3)NCCC4)C(=O)O)CC2)n1 [Compound 72, N-(1-(5-chloro-3-methyl-1H-pyrazol-1-yl)cyclopropane-1-carbonyl)-O-(4-(5,6,7,8-tetrahydro-1,8-naphthyridin-2-yl)butyl)-L-homoserine] | ≥ 500 | < 50 | < 50 |
| CC(C)(C(=O)N[C@@H](CCOCCCCc1ccc2c(n1)NCCC2)C(=O)O)c1cc(F)cnc1Cl [Compound 23, N-(2-(2-chloro-5-fluoropyridin-3-yl)-2-methylpropanoyl)-O-(4-(5,6,7,8-tetrahydro-1,8-naphthyridin-2-yl)butyl)-L-homoserine] | 250 to 500 | 50 to 150 | < 50 |
| CC(C)(C(=O)N[C@@H](CCOCCCCc1ccc2c(n1)NCCC2)C(=O)O)c1ccccc1Cl [Compound 8, N-(2-(2-chlorophenyl)-2-methylpropanoyl)-O-(4-(5,6,7,8-tetrahydro-1,8-naphthyridin-2-yl)butyl)-L-homoserine] | ≥ 500 | 50 to 150 | < 50 |
| O=C(O)[C@H](CCOCCCCc1ccc2c(n1)NCCC2)NC(=O)C1(c2ncnc3ccccc23)CC1 [Compound 31, N-(1-(quinazolin-4-yl)cyclopropane-1-carbonyl)-O-(4-(5,6,7,8-tetrahydro-1,8-naphthyridin-2-yl)butyl)-L-homoserine] | ≥ 500 | < 50 | < 50 |
| Cc1cnc(C2(C(=O)N[C@@H](CCOCCCCc3ccc4c(n3)NCCC4)C(=O)O)CC2)c(Cl)c1 [Compound 36, N-(1-(3-chloro-5-methylpyridin-2-yl)cyclopropane-1-carbonyl)-O-(4-(5,6,7,8-tetrahydro-1,8-naphthyridin-2-yl)butyl)-L-homoserine] | ≥ 500 | < 50 | < 50 |
| COc1cccc(=O)n1C1(C(=O)N[C@@H](CCOCCCCc2ccc3c(n2)NCCC3)C(=O)O)CC1 [Compound 92, N-(1-(6-methoxy-2-oxopyridin-1(2H)-yl)cyclopropane-1-carbonyl)-O-(4-(5,6,7,8-tetrahydro-1,8-naphthyridin-2-yl)butyl)-L-homoserine] | > 500 | 50 to 150 | 50 to 150 |
| O=C(O)[C@H](CCOCCCCc1ccc2c(n1)NCCC2)NC(=O)C1(C(F)(F)F)CCOCC1 [Compound 100, O-(4-(5,6,7,8-tetrahydro-1,8-naphthyridin-2-yl)butyl)-N-(4-(trifluoromethyl)tetrahydro-2H-pyran-4-carbonyl)-L-homoserine] | 50 to 150 | < 50 | < 50 |
| O=C(O)[C@H](CCOCCCCc1ccc2c(n1)NCCC2)NC(=O)C1(n2c(Cl)cccc2=O)CC1 [Compound 65, N-(1-(6-chloro-2-oxopyridin-1(2H)-yl)cyclopropane-1-carbonyl)-O-(4-(5,6,7,8-tetrahydro-1,8-naphthyridin-2-yl)butyl)-L-homoserine] | ≥ 500 | < 50 | < 50 |
| Cc1nccnc1C1(C(=O)N[C@@H](CCOCCCCc2ccc3c(n2)NCCC3)C(=O)O)CC1 [Compound 42, N-(1-(3-methylpyrazin-2-yl)cyclopropane-1-carbonyl)-O-(4-(5,6,7,8-tetrahydro-1,8-naphthyridin-2-yl)butyl)-L-homoserine] | ≥ 500 | < 50 | < 50 |
| O=C(O)[C@H](CCOCCCCc1ccc2c(n1)NCCC2)NC(=O)C1(c2ncccc2C(F)F)CC1 [Compound 40, N-(1-(3-(difluoromethyl)pyridin-2-yl)cyclopropane-1-carbonyl)-O-(4-(5,6,7,8-tetrahydro-1,8-naphthyridin-2-yl)butyl)-L-homoserine] | ≥ 500 | < 50 | < 50 |
| Cc1ccncc1C1(C(=O)N[C@@H](CCOCCCCc2ccc3c(n2)NCCC3)C(=O)O)CC1 [Compound 16, N-(1-(4-methylpyridin-3-yl)cyclopropane-1-carbonyl)-O-(4-(5,6,7,8-tetrahydro-1,8-naphthyridin-2-yl)butyl)-L-homoserine] | ≥ 500 | < 50 | < 50 |

Second part, the molecule after the results:

| IC50 [1] [nM] | IC50 [2] [nM] | IC50 [3] [nM] | SMILES |
| --- | --- | --- | --- |
| ≥ 500 | 50 to 150 | 50 to 150 | COc1ncccc1C1(C(=O)N[C@@H](CCOCCCCc2ccc3c(n2)NCCC3)C(=O)O)CC1 [Compound 35, N-(1-(2-methoxypyridin-3-yl)cyclopropane-1-carbonyl)-O-(4-(5,6,7,8-tetrahydro-1,8-naphthyridin-2-yl)butyl)-L-homoserine] |
| ≥ 500 | < 50 | < 50 | O=C(O)[C@H](CCOCCCCc1ccc2c(n1)NCCC2)NC(=O)C1(c2ncsc2Cl)CC1 [Compound 82, N-(1-(5-chlorothiazol-4-yl)cyclopropane-1-carbonyl)-O-(4-(5,6,7,8-tetrahydro-1,8-naphthyridin-2-yl)butyl)-L-homoserine] |
| ≥ 500 | < 50 | < 50 | O=C(O)[C@H](CCOCCCCc1ccc2c(n1)NCCC2)NC(=O)C1(c2c(Cl)cn[nH]c2=O)CC1 [Compound 76, N-(1-(5-chloro-3-oxo-2,3-dihydropyridazin-4-yl)cyclopropane-1-carbonyl)-O-(4-(5,6,7,8-tetrahydro-1,8-naphthyridin-2-yl)butyl)-L-homoserine] |
| ≥ 500 | < 50 | < 50 | Cn1cnc(Cl)c1C1(C(=O)N[C@@H](CCOCCCCc2ccc3c(n2)NCCC3)C(=O)O)CC1 [Compound 80, N-(1-(4-chloro-1-methyl-1H-imidazol-5-yl)cyclopropane-1-carbonyl)-O-(4-(5,6,7,8-tetrahydro-1,8-naphthyridin-2-yl)butyl)-L-homoserine] |
| ≥ 500 | < 50 | < 50 | COc1ncnc(C)c1C1(C(=O)N[C@@H](CCOCCCCc2ccc3c(n2)NCCC3)C(=O)O)CC1 [Compound 61, N-(1-(4-methoxy-6-methylpyrimidin-5-yl)cyclopropane-1-carbonyl)-O-(4-(5,6,7,8-tetrahydro-1,8-naphthyridin-2-yl)butyl)-L-homoserine] |
| ≥ 500 | < 50 | < 50 | COc1ncnc(Cl)c1C1(C(=O)N[C@@H](CCOCCCCc2ccc3c(n2)NCCC3)C(=O)O)CC1 [Compound 62, N-(1-(4-chloro-6-methoxypyrimidin-5-yl)cyclopropane-1-carbonyl)-O-(4-(5,6,7,8-tetrahydro-1,8-naphthyridin-2-yl)butyl)-L-homoserine] |
| > 500 | < 50 | < 50 | Cc1ncnc(Cl)c1C1(C(=O)NC(CCOCCCCc2ccc3c(n2)NCCC3)C(=O)O)CC1 (stereo not drawn) [Compound 101, N-(1-(4-chloro-6-methylpyrimidin-5-yl)cyclopropane-1-carbonyl)-O-(4-(5,6,7,8-tetrahydro-1,8-naphthyridin-2-yl)butyl)homoserine] |
